Laboratory results published in patent US5486525A, “Platelet activating factor antagonists: imidazopyridine indoles” (priority 1994, dated 1996).
Structures can show the parent of a compound that is named as a salt.

The compounds below were run against T1, PAF receptor (Oryctolagus cuniculus, UniProt G1TEI7) (assay: PAF receptor binding assay: inhibition of specific [^3 H]C18 -PAF binding to rabbit platelet membranes). Conditions: not given.
T1 construct: platelet membranes were prepared by centrifugation and washing; tissue Pel-Freez (Rogers, AR); host or cells: rabbit blood platelets (membranes prepared from citrated whole rabbit blood)
T1 sequence (G1TEI7 1-342): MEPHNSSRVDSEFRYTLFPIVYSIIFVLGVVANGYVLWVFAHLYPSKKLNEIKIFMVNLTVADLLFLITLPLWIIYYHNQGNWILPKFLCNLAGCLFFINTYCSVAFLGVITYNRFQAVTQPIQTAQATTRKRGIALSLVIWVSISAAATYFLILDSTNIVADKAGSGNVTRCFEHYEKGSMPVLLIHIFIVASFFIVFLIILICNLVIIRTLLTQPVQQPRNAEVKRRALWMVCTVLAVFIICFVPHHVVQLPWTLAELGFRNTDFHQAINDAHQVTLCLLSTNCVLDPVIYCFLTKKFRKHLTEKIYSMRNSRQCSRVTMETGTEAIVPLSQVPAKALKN

Compound	Ki [nM]	inhibition at 1 µM [%]	inhibition at 100 µM [%]
COC(=O)c1cccc2c1c(C(=O)c1ccc(Cn3c(C)nc4cnccc43)c(F)c1)cn2C(=O)N(C)C [Example 96, 1-N,N-Dimethylcarbamoyl-4-methoxycarbonyl-3-{3-fluoro-4-[(1H-2-methylimidazo[4,5-c]pyrid-1-yl)methyl]benzoyl}indole]	7.7		
CCc1nc2cnccc2n1Cc1ccc(C(=O)c2cn(C(=O)N(C)C)c3ccccc23)cc1 [Example 33]	29		
Cc1nc2cnccc2n1Cc1ccc(C(=O)c2cn(C(=O)N(C)C)c3cccc(Br)c23)cc1 [Example 102, 1-N,N-Dimethylcarbamoyl-4-bromo-3-{4-[(1H-2-methylimidazo[4.5-c]pyrid-1-yl)methyl]benzoyl}indole]	10		
Cc1cccc2c1c(C(=O)c1ccc(Cn3c(C)nc4cnccc43)cc1)cn2C(=O)N(C)C [Example 122, 1-N,N-Dimethylcarbamoyl-4-methyl-3-(4-[(1H-2-methylimidazo[4.5-c]pyrid-1-yl)methyl]benzoyl}indole]	0.8		
Cc1nc2cnccc2n1Cc1cccc(C(=O)c2cn(C(=O)N(C)C)c3cc(-c4ccc(F)cc4)ccc23)c1 [Example 12, 1-N,N-Dimethylcarbamoyl-6-(4-fluorophenyl)-3-{3-[(1H-2-methylimidazo[4.5-c]pyrid-1-yl)methyl]benzoyl}indole]	140		
CN(C)C(=O)n1cc(C(=O)c2ccc(Cn3c(-c4ccccc4)nc4cnccc43)cc2)c2ccccc21 [Example 32]		10	
Cc1nc2cnccc2n1Cc1ccc(C(=O)c2cn(C(=O)N(C)C)c3ccccc23)cc1 [Example 14, 1-N,N-Dimethylcarbamoyl-3-{4-[(1H-2-methylimidazo[4.5-c]pyrid-1-yl)methyl]benzoyl}indole]	5		
C#Cc1cccc2c1c(C(=O)c1ccc(Cn3c(C)nc4cnccc43)cc1)cn2C(=O)N(C)C [Example 107, 1-N,N-Dimethylcarbamoyl-4-ethynyl-3-{4-[(1H-2-methylimidazo[4.5-c]pyrid-1-yl)methyl]benzoyl}indole]	0.6		
Cc1nc2ccncc2n1Cc1ccc(C(=O)c2cn(C(=O)N(C)C)c3cc(-c4ccc(F)cc4)ccc23)cc1 [Example 7, 1-N,N-Dimethylcarbamoyl-6-(4-fluorophenyl)-3-{4-[(3H-2-methylimidazo[4.5-c]pyrid-3-yl)methyl]benzoyl}indole]	700		
Cc1nc2cnccc2n1Cc1ccc(C(=O)c2cn(C(=O)N(C)C)c3cccc(C(=O)N(C)C)c23)cc1 [Example 112, 1,4-di-N,N-Dimethylcarbamoyl-3-{4-[(1H-2-methylimidazo[4.5-c]pyrid-1-yl)methyl]benzoyl}indole]	150		
CCOCCn1cc(C(=O)c2ccc(Cn3c(C)nc4cnccc43)cc2)c2c(Cl)cccc21 [Example 138, 1-(2-Ethoxyethyl)-4-chloro-3-{4-[(1H-2-methylimidazo[4.5-c]pyrid-1-yl)methyl]benzoyl}indole]	2.2		
Cc1nc2ccncc2n1Cc1cccc(C(=O)c2cn(C(=O)N(C)C)c3ccccc23)c1 [Example 20, 1-N,N-Dimethylcarbamoyl-3-{3-[(3H-2-methylimidazo[4.5-c]pyrid-3-yl)methyl]benzoyl}indole]			26
Cc1nc2cnccc2n1Cc1cccc(C(=O)c2cn(C(=O)N(C)C)c3ccccc23)c1 [Example 18, 1-N,N-Dimethylcarbamoyl-3-{3-[(1H-2-methylimidazo[4.5-c]pyrid-1-yl)methyl]benzoyl}indole]	323		
Cc1nc2cnccc2n1-c1ccc(C(=O)c2cn(C(=O)N(C)C)c3cc(-c4ccc(F)cc4)ccc23)cc1 [Example 10, 1-N,N-Dimethylcarbamoyl-6-(4-fluorophenyl)-3-[4-(1H-2-methylimidazo[4.5-c]pyrid-1-yl)benzoyl]indole]	258		
CN(C)C(=O)n1cc(C(=O)c2ccc(Cn3c(C(F)(F)F)nc4cnccc43)cc2)c2ccccc21 [Example 29]	494		
COC(=O)c1cccc2c1c(C(=O)c1ccc(C(C)n3c(C)nc4cnccc43)cc1)cn2C(=O)N(C)C (stereo not drawn) [Example 156, 1-N,N-Dimethylcarbamoyl-4-methoxycarbonyl-3-{4-[1-(1H-2-methylimidazo[4.5-c]pyrid-1-yl)eth-1-yl]benzoyl}indole]	19		
Cc1nc2ccncc2n1CC(=O)c1cn(C(=O)N(C)C)c2cc(-c3ccc(F)cc3)ccc12 [Example 23, 1-N,N-Dimethylcarbamoyl-6-(4-fluorophenyl)-3-[(3H-2-methylimidazo[4.5-c]pyrid-3-yl)methylcarbonyl]indole]		7	
CC(C)c1nc2cnccc2n1Cc1ccc(C(=O)c2cn(C(=O)N(C)C)c3ccccc23)cc1 [Example 31]	44		
Cc1nc2cccnc2n1Cc1ccc(C(=O)c2cn(C(=O)N(C)C)c3ccccc23)cc1 [Example 27, 1-N,N-Dimethylcarbamoyl-3-{4-[(3H-2-methylimidazo[4.5-b]pyrid-3-yl)methyl]benzoyl}indole]	160		
Cc1nc2cnccc2n1CC(=O)c1cn(C(=O)N(C)C)c2cc(-c3ccc(F)cc3)ccc12 [Example 24, 1-N,N-Dimethylcarbamoyl-6-(4-fluorophenyl)-3-[(1H-2-methylimidazo[4.5-c]pyrid-1-yl)methylcarbonyl]indole]		6	
Cc1nc2cnccc2n1Cc1ccc(C(=O)c2cn(C(=O)N(C)C)c3cccc(C#N)c23)cc1 [Example 150, 1-N,N-Dimethylcarbamoyl-4-cyano-3-{4-[(1H-2-methylimidazo[4.5-c]pyrid-1-yl)methyl]benzoyl}indole hydrochloride]	40		
Cc1nc2ncccc2n1Cc1ccc(C(=O)c2cn(C(=O)N(C)C)c3ccccc23)cc1 [Example 28, 1-N,N-Dimethylcarbamoyl-3-{4-[(1H-2-methylimidazo[4.5-b]pyrid-1-yl)methyl]benzoyl}indole]	87		
CN(C)C(=O)n1cc(C(=O)c2ccc(Cn3cnc4cnccc43)cc2)c2ccccc21 [Example 30]	342		
Cc1nc2ccn(Cc3ccc(C(=O)c4cn(C(=O)N(C)C)c5ccccc45)cc3)cc-2n1 [Example 16, 1-N,N-Dimethylcarbamoyl-3-[4-(5H-2-methylimidazo[4.5-c]pyrid-5-ylmethyl)benzoyl]indole]			18
Cc1nc2ccccc2n1Cc1ccc(C(=O)c2cn(C(=O)N(C)C)c3cc(-c4ccc(F)cc4)ccc23)cc1 [Example 2, 1-N,N-Dimethylcarbamoyl-6-(4-fluorophenyl)-3-{4-[(1H-2-methylbenzimidazolyl)methyl]benzoyl}indole]	56		
CCc1cccc2c1c(C(=O)c1ccc(Cn3c(C)nc4cnccc43)cc1)cn2C(=O)N(C)C [Example 143]	0.9		
COC(=O)c1cccc2c1c(C(=O)c1ccc(Cn3c(C)nc4cc(Cl)c(Cl)cc43)cc1)cn2C(=O)N(C)C [Example 167, 1-N,N-Dimethylcarbamoyl-4-methoxycarbonyl-3-{4-[(1H-2-methyl-5,6-dichlorobenzimidazolyl)methyl]benzoyl}indole]	450		

Same assay, conditions: Table 1; rabbit platelet membranes, 0.6 nM [^3 H]C18 -PAF, 60 minutes at room temperature; Ki by Cheng and Prusoff

Compound	Ki [nM]
COC(=O)c1cccc2c1c(C(=O)c1ccc(Cn3c(C)nc4c(Cl)nccc43)cc1)cn2C(=O)N(C)C [Example 174, 1-N,N-Dimethylcarbamoyl-4-methoxycarbonyl-3-{4-[(4-chloro-1H-2-methylimidazo[4.5-c]pyrid-1-yl)methyl]benzoyl}indole]	4

Same assay, conditions: Table 1; rabbit platelet membranes, 0.6 nM [^3 H]C18 -PAF, 60 minutes at room temperature; Ki by Cheng and Prusoff; read-out: Ki

Compound	Ki [nM]
Cc1nc2cnccc2n1-c1ccc(C(=O)c2c[nH]c3cc(-c4ccc(F)cc4)ccc23)cc1 [Example 9, 6-(4-Fluorophenyl)-3-[4-(1H-2-methylimidazo[4.5-c]pyrid-1-yl)benzoyl]indole]	60
COC(=O)c1ccc(C(=O)OC)c2c(C(=O)c3ccc(Cn4c(C)nc5cnccc54)cc3)c[nH]c12 [Example 90, 4,7-Dimethoxycarbonyl-3-{4-[(1H-2-methylimidazo[4,5-c]pyrid-1-yl)methyl]benzoyl}indole]	2.9
Cc1nc2cnccc2n1Cc1ccc(C(=O)c2c[nH]c3ccccc23)cc1 [Example 13, 3-{4-[(1H-2-Methylimidazo[4.5-c]pyrid-1-yl)methyl]benzoyl}indole]	150
Cc1nc2cnccc2n1Cc1ccc(C(=O)c2c[nH]c3cc(-c4ccc(F)cc4)ccc23)cc1 [Example 3, 6-(4-Fluorophenyl)-3-{4-[(1H-2-methylimidazo[4.5-c]pyrid-1-yl)methyl]benzoyl}indole]	75
COC(=O)c1cccc2c1c(S(=O)(=O)c1ccc(Cn3c(C)nc4cnccc43)cc1)cn2C(=O)N(C)C [Example 141, 1-N,N-Dimethylcarbamoyl-4-methoxycarbonyl-3-{4-[(1H-2-methylimidazo[4.5-c]pyrid-1-yl)methyl]phenylsulfonyl}indole]	20
1-N,N-Dimethylcarbamoyl-4-chloro-3-{4-[(1H-2-methyl-5- and 6-chlorobenzimidazoyl)methyl]benzoyl}indole [Example 159]	9
Cc1nc2cnccc2n1CCCN(C)CC(=O)c1cn(C(=O)N(C)C)c2cc(-c3ccc(F)cc3)ccc12 [Example 95, 6-(4-Fluorophenyl)-3-{N-[3-(1H-2-methylimidazo[4.5-c]pyrid-1-yl)propyl]sarcosyl}indole-1-carboxylic acid dimethyl amide]	130
Cc1nc2cnccc2n1Cc1cccc(C(=O)c2c[nH]c3ccccc23)c1 [Example 17, 3-{3-[(1H-2-Methylimidazo[4.5-c]pyrid-1-yl)methyl]benzoyl}indole]	422
Cc1nc2ccncc2n1Cc1ccc(C(=O)c2c[nH]c3cc(-c4ccc(F)cc4)ccc23)cc1 [Example 6, 6-(4-Fluorophenyl)-3-{4-[(3H-2-methylimidazo[4.5-c]pyrid-3-yl)methyl]benzoyl}indole]	140
COC(=O)c1cccc2c1c(C(=O)CCCCCn1c(C)nc3cnccc31)cn2C(=O)N(C)C [Example 126]	62
Cc1nc2cnccc2n1Cc1cccc(C(=O)c2c[nH]c3cc(-c4ccc(F)cc4)ccc23)c1 [Example 11, 6-(4-Fluorophenyl)-3-{3-[(1H-2-methylimidazo[4.5-c]pyrid-1-yl)methyl]benzoyl}indole]	86
